Assay results from BigSolDB 2.1.

CN1CCN(C2=Nc3cc(Cl)ccc3Nc3ccccc32)CC1
solubility (mole fraction)
Conditions | 278.15 K | 283.15 K | 288.15 K | 293.15 K | 298.15 K | 303.15 K | 308.15 K | 313.15 K | 318.15 K | 323.15 K
in 2-ethoxyethanol | 0.0358 | 0.0391 | 0.0415 | 0.0442 | 0.0476 | 0.0499 | 0.053 | 0.0566 | 0.0612 | 0.0666
in 2-methoxyethanol | 0.0326 | 0.0349 | 0.0366 | 0.0393 | 0.0422 | 0.0451 | 0.048 | 0.0508 | 0.0546 | 0.0596
in 2-propoxyethanol | 0.042 | 0.0443 | 0.0463 | 0.0499 | 0.0521 | 0.0548 | 0.0581 | 0.0612 | 0.0637 | 0.0679
in ethanol | 0.00466 | 0.00535 | 0.00581 | 0.0064 | 0.0072 | 0.0081 | 0.00917 | 0.0105 | 0.012 | 0.0134
in ethyl acetate | 0.00895 | 0.01 | 0.0114 | 0.0128 | 0.0146 | 0.016 | 0.0181 | 0.0203 | 0.0233 | 0.0265
in methyl acetate | 0.00616 | 0.00707 | 0.00797 | 0.0094 | 0.0108 | 0.0124 | 0.0142 | 0.0164 | 0.0188 | 0.022
in n-butanol | 0.00644 | 0.00761 | 0.00853 | 0.00972 | 0.0112 | 0.0129 | 0.0145 | 0.0164 | 0.0192 | 0.0217
in n-butyl acetate | 0.0121 | 0.0136 | 0.0147 | 0.0164 | 0.0182 | 0.02 | 0.0228 | 0.0255 | 0.0276 | 0.0314
in n-pentanol | 0.00737 | 0.00904 | 0.0107 | 0.0121 | 0.0135 | 0.0152 | 0.0177 | 0.0203 | 0.0234 | 0.0264
in n-pentyl acetate | 0.0131 | 0.0143 | 0.0162 | 0.0176 | 0.0198 | 0.0221 | 0.024 | 0.0269 | 0.0298 | 0.0334
in n-propanol | 0.00577 | 0.00645 | 0.00734 | 0.0083 | 0.00928 | 0.0109 | 0.0123 | 0.0148 | 0.0168 | 0.019
in n-propyl acetate | 0.0114 | 0.0128 | 0.014 | 0.0157 | 0.0174 | 0.0194 | 0.0219 | 0.0246 | 0.027 | 0.0305
